Results from patent publication US7807383B2, “Diagnosing and treating hormone resistant cancers” (Board of Regents, The University of Texas System, priority 2007, dated 2010).

Biological target: T1, DBC-1/ERα interaction (Homo sapiens, UniProt P03372)
T1 sequence (P03372 1-595): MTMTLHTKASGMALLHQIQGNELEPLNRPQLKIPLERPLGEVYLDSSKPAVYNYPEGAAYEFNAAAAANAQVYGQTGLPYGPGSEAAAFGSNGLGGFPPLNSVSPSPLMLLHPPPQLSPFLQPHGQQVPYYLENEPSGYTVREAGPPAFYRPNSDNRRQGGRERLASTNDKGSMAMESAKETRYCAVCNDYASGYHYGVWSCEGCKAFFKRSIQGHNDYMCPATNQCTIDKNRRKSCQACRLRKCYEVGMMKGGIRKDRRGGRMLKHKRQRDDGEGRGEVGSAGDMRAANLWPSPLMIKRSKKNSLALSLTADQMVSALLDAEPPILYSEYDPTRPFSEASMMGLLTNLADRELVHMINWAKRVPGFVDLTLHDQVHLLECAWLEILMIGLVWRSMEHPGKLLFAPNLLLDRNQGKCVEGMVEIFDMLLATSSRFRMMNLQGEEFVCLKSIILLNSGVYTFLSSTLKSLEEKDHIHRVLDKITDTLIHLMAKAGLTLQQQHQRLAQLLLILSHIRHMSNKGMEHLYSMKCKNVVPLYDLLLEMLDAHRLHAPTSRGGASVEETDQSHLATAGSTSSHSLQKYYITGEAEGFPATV
Conditions: MCF-7 and BG-1 cells, hormone-free medium; E2 10^−7 M, 4-OHT 10^−6 M, ICI 10^−7 M; one hour
Description: Results are representative of at least three independent experiments.

effect on DBC-1/ERα interaction (co-immunoprecipitation): disrupted the DBC-1/ERα interaction
SMILES: C[C@]12CC[C@@H]3c4ccc(O)cc4C[C@@H](CCCCCCCCC[S+]([O-])CCCC(F)(F)C(F)(F)F)[C@H]3[C@@H]1CC[C@@H]2O (stereo partly shown) [ICI 182,780]
